# “And” between values parts separate entries of the source, which are not always exact repeats. Equal values may be shown once.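 How tested: cells in 96-well plates exposed to compound for 48 hours at five concentrations. GI50 marks 50% less growth. TGI marks complete inhibition of growth.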
# Experiments:
# Test in all cases: DTP human tumour cell line panel, 48 h
# [1] = tested on: SF-539 CNS
# [2] = tested on: NCI-H460 lung
# [3] = tested on: NCI/ADR-RES ovarian
# [4] = tested on: KM12 colon
# [5] = tested on: RXF 393 renal
# [6] = tested on: DU-145 prostate
# [7] = tested on: NCI-H226 lung
# [8] = tested on: ACHN renal
# [9] = tested on: M14 melanoma
# [10] = tested on: HCT-15 colon
SMILES,TGI [1],TGI [2],TGI [3],TGI [4],TGI [5],TGI [6],TGI [7],TGI [8],TGI [9],TGI [10],GI50 [10],GI50 [1],GI50 [2],GI50 [3],GI50 [4],GI50 [5],GI50 [6],GI50 [7],GI50 [8],GI50 [9]
O=[N+]([O-])c1ccc(N2N=C(c3c(O)ccc4ccccc34)CC2c2ccc(Cl)cc2)c([N+](=O)[O-])c1 (configuration not stated),91.7 µM,> 100 µM,55.6 µM,45.5 µM,73.5 µM,> 100 µM,> 100 µM,> 100 µM,71 µM,> 100 µM,–,–,–,–,–,–,–,–,–,–
CCOc1ccc2nc3nc(=O)[nH]c(C)c3c(NC(C)(CO)CO)c2c1,> 100 µM,> 100 µM,> 100 µM,> 100 µM,> 100 µM,> 100 µM,> 100 µM,> 100 µM,> 100 µM,> 100 µM,–,–,–,–,–,–,–,–,–,–
CC(=O)OCC1OC(SC2=NC(=O)CS2)C(OC(C)=O)C(OC(C)=O)C1OC(C)=O (configuration not stated),> 100 µM,> 100 µM,> 100 µM,> 100 µM,> 100 µM,> 100 µM,> 100 µM,> 100 µM,> 100 µM,> 100 µM,26.3 µM and 53 µM,–,–,–,–,–,–,–,–,–
COc1ccc(OC)c2c(C)ccnc12,> 68.7 µM,> 100 µM,67.4 µM,> 100 µM,> 100 µM,> 100 µM,> 93.4 µM,> 100 µM,34.3 µM,> 100 µM,–,–,–,–,–,–,–,–,–,–
O=C(O)Cn1c2c(c3c1-c1ccccc1C3=O)C(=O)CCC2,> 100 µM,> 100 µM,> 100 µM,> 100 µM,> 100 µM,> 100 µM,> 100 µM,> 100 µM,> 100 µM,> 100 µM,> 100 µM,> 100 µM,> 100 µM,> 100 µM,> 100 µM,> 100 µM,> 100 µM,> 100 µM,> 100 µM,> 100 µM
CC(=O)/C=C/c1ccccc1,64.6 µM,> 100 µM,> 100 µM,97.9 µM,> 100 µM,> 100 µM,91.2 µM,> 100 µM,85 µM,> 100 µM,–,–,–,–,–,–,–,–,–,–
c1ccc2c[n+](CCCC[n+]3ccc4ccccc4c3)ccc2c1,> 100 µM,> 100 µM,> 100 µM,> 100 µM,> 100 µM,> 100 µM,> 100 µM,> 100 µM,> 100 µM,> 100 µM,–,–,–,–,–,–,–,–,–,–
CSc1nnc(SCc2nn3c(=O)cc(C)nc3s2)s1,> 100 µM,> 100 µM,> 100 µM,> 100 µM,> 100 µM,> 100 µM,> 100 µM,> 100 µM,> 100 µM,> 100 µM,–,–,–,–,–,–,–,–,–,–
O=C1C=CC(=O)c2c(O)c(N3CCOCC3)c(Cl)c(O)c21,1 µM,2.71 µM,1.43 µM,3.32 µM,0.464 µM,2.93 µM,3.34 µM,0.739 µM,0.358 µM,0.403 µM,–,–,–,–,–,–,–,–,–,–
CCOC(=O)C1CCC(=O)N1C(=O)c1cccc(Cl)c1 (configuration not stated),> 100 µM,> 100 µM,> 100 µM,> 100 µM,> 100 µM,> 100 µM,> 100 µM,> 100 µM,> 100 µM,> 100 µM,–,–,–,–,–,–,–,–,–,–
CC/C=C/c1cc2c(cc1O)CCC1C2CC[C@@]2(C)C1CC[C@@H]2O (some centres not stated),2.59 µM,17.3 µM,5.67 µM,15 µM,7.92 µM,14.6 µM,10.6 µM,17.9 µM,12.2 µM,29.9 µM,–,0.645 µM,–,–,–,–,–,–,–,–
Cc1cc2nc3ccccc3n2c2ccccc12,> 10 µM,> 10 µM,> 10 µM,> 10 µM,> 10 µM,> 10 µM,> 10 µM,> 10 µM,> 10 µM,> 10 µM,–,–,–,–,–,–,–,–,–,–
Cc1nc2ccc(Br)cc2c(=O)n1-c1ccc(N)cc1,> 100 µM,> 100 µM,> 100 µM,> 100 µM,81.8 µM,> 100 µM,> 100 µM,> 100 µM,> 100 µM,> 100 µM,–,–,–,–,–,–,–,–,–,–
O=c1[nH]nc(-c2ccccc2)c2[nH]c3c(c12)Cc1ccccc1-3,> 28.3 µM,> 100 µM,> 100 µM,> 83.5 µM,> 42.2 µM,> 100 µM,70.7 µM,> 100 µM,> 100 µM,> 100 µM,–,–,–,–,–,–,–,–,–,–

# — PubChem BioAssay (NCI)
